One series deals with Cytochrome P450 2E1 (Homo sapiens, UniProt P05181). Conditions: bti-tn-5b1-4.
Cytochrome P450 2E1, sequence (P05181 whole entry): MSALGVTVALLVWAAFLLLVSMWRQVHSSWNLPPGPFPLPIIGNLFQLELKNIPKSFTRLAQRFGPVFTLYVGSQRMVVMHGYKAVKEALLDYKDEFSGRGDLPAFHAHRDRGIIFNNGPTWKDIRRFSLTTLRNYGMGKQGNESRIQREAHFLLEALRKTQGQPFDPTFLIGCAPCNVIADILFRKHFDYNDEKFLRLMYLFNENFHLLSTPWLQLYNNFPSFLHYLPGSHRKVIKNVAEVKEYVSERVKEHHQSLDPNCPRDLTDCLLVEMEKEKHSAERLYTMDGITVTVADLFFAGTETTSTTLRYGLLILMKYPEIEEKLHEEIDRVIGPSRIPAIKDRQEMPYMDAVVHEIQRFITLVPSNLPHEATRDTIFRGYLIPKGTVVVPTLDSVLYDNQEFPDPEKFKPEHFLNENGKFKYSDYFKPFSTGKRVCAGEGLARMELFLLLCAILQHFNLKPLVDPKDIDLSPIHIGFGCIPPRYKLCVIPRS
For the compound `CC(C)(C)NCC(O)c1cc(Cl)c(N)c(Cl)c1` (stereo unspecified) [CLENBUTEROL], the IC50 result is given as “Not Active” and the Ki result is reported as “Not Active”.

`O=C(O)CCCc1ccc(N(CCCl)CCCl)cc1` [CHLORAMBUCIL]: the IC50 entry is “Not Active” and the Ki result is given as “Not Active”.

Take `Cc1ccc(N(CC2=NCCN2)c2cccc(O)c2)cc1` [PHENTOLAMINE]: the IC50 result is recorded as “Not Active” and the Ki entry is recorded as “Not Active”.

`COc1ccc(C[C@H]2NC[C@H](O)[C@H]2OC(C)=O)cc1` [ANISOMYCIN]: the IC50 result is “Not Active” and the Ki result was “Not Active”.

In the case of `CN(C)CCCN1c2ccccc2Sc2ccc(Cl)cc21` [CHLORPROMAZINE], the IC50 entry is “Not Active” and the Ki entry is given as “Not Active”.

As to `CCOC(=O)C1=C(COCCN)NC(C)=C(C(=O)OC)C1c1ccccc1Cl` (stereo unspecified) [AMLODIPINE], the IC50 entry is given as “Not Active” and the Ki result is recorded as “Not Active”.

For the compound LEAD (II) ACETATE, the IC50 entry is listed as “Not Active” and the Ki entry is “Not Active”.

On to CADMIUM ACETATE, for which the IC50 entry is recorded as “Not Active” and the Ki result is “Not Active”.

For another series, the target named is Protein phosphatase 3 catalytic subunit alpha (Homo sapiens, UniProt Q08209). Also noted: species or system Escherichia coli.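 Also: inhibition of calcineurin (PP2B) enzyme activity, measured with DiFMUP as the substrate; in other assays of this panel Not Active means under 50% inhibition at 10 µM.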
Details: not given
Regarding `CC(C)(C)NCC(O)c1cc(Cl)c(N)c(Cl)c1` (stereo unspecified) [CLENBUTEROL], the IC50 result was “Not Active”.

For the compound `O=C(O)CCCc1ccc(N(CCCl)CCCl)cc1` [CHLORAMBUCIL], the IC50 result is “Not Active”.

With `Cc1ccc(N(CC2=NCCN2)c2cccc(O)c2)cc1` [PHENTOLAMINE], the IC50 entry is reported as “Not Active”.

Regarding `COc1ccc(C[C@H]2NC[C@H](O)[C@H]2OC(C)=O)cc1` [ANISOMYCIN], the IC50 entry is given as “Not Active” and the Ki result is on record as “Not Active”.

On to `CN(C)CCCN1c2ccccc2Sc2ccc(Cl)cc21` [CHLORPROMAZINE], for which the IC50 result was “Not Active”.

`CCOC(=O)C1=C(COCCN)NC(C)=C(C(=O)OC)C1c1ccccc1Cl` (stereo unspecified) [AMLODIPINE]: the IC50 result is on record as “Not Active”.

In the case of LEAD (II) ACETATE, the IC50 entry is reported as “Not Active” and the Ki entry is “Not Active”.

As to CADMIUM ACETATE, the IC50 result is “Not Active” and the Ki entry is listed as “Not Active”.

A further series has as its target T1, Cytochrome P450 2A6 (Homo sapiens, UniProt P11509). Also: in other assays of this panel Not Active means under 50% inhibition at 10 µM.
T1 sequence (P11509 whole entry): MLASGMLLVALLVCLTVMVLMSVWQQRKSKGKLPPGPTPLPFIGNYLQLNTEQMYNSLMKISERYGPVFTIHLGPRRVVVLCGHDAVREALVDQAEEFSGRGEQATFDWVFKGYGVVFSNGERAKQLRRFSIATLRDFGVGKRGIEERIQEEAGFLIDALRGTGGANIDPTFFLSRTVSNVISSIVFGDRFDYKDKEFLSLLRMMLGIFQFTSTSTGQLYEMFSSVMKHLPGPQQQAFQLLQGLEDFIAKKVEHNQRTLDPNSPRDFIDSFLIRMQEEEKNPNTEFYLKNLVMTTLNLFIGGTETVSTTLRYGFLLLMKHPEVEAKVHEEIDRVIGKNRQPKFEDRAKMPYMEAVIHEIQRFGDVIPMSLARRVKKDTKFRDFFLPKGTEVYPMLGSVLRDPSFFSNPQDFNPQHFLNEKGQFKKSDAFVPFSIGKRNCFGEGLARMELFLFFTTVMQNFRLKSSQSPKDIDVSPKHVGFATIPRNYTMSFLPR
Conditions: bti-tn-5b1-4.
For the compound `CC(C)(C)NCC(O)c1cc(Cl)c(N)c(Cl)c1` (stereo unspecified) [CLENBUTEROL], the IC50 entry was “Not Active” and the Ki result is given as “Not Active”.

In the case of `O=C(O)CCCc1ccc(N(CCCl)CCCl)cc1` [CHLORAMBUCIL], the IC50 entry is “Not Active” and the Ki result is listed as “Not Active”.

Take `Cc1ccc(N(CC2=NCCN2)c2cccc(O)c2)cc1` [PHENTOLAMINE]: the IC50 result is on record as “Not Active” and the Ki entry was “Not Active”.

Regarding `COc1ccc(C[C@H]2NC[C@H](O)[C@H]2OC(C)=O)cc1` [ANISOMYCIN], the IC50 entry is “Not Active” and the Ki result was “Not Active”.

As to `CN(C)CCCN1c2ccccc2Sc2ccc(Cl)cc21` [CHLORPROMAZINE], the IC50 result is “Not Active” and the Ki result is on record as “Not Active”.

For the compound `CCOC(=O)C1=C(COCCN)NC(C)=C(C(=O)OC)C1c1ccccc1Cl` (stereo unspecified) [AMLODIPINE], the IC50 result is on record as “Not Active” and the Ki result was “Not Active”.

Take LEAD (II) ACETATE: the IC50 entry is “Not Active” and the Ki entry is on record as “Not Active”.

On to CADMIUM ACETATE, for which the IC50 result was “Not Active” and the Ki result is “Not Active”.

In another series the target is Mu-type opioid receptor (Homo sapiens, UniProt P35372). Kind of series: DRUGMATRIX: Opiate mu (OP3, MOP) radioligand binding (ligand: [3H] Diprenorphine). In kind it is cell membranes, CHO-K1, Membrane. Conditions: cho-k1; Not Active = under 50% inhibition at 10 µM.
Mu-type opioid receptor, sequence (P35372 whole entry): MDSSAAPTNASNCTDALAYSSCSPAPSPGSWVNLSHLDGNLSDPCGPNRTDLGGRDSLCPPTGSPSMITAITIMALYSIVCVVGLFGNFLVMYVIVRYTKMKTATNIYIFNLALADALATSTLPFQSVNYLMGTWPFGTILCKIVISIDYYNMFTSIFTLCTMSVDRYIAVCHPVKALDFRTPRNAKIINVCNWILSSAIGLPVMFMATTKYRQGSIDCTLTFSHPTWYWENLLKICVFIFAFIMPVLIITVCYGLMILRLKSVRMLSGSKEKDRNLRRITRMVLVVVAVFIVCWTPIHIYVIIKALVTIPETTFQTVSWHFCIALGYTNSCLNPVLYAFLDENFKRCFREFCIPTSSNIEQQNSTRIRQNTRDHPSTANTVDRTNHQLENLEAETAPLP
Turning to `Cc1ccc(N(CC2=NCCN2)c2cccc(O)c2)cc1` [PHENTOLAMINE], the IC50 entry is given as “Not Active”.

In the case of `CCOC(=O)C1=C(COCCN)NC(C)=C(C(=O)OC)C1c1ccccc1Cl` (stereo unspecified) [AMLODIPINE], the IC50 entry is on record as “Not Active”.

Test system in a further series: not listed separately
Briefly: DRUGMATRIX: Potassium Channel [KATP] radioligand binding (ligand: [3H] Glyburide). In kind it is cell membranes, Membrane. Conditions: hit-t15; Not Active = under 50% inhibition at 10 µM.
Take `CC(C)(C)NCC(O)c1cc(Cl)c(N)c(Cl)c1` (stereo unspecified) [CLENBUTEROL]: the IC50 result is listed as “Not Active” and the Ki result is “Not Active”.

Take `O=C(O)CCCc1ccc(N(CCCl)CCCl)cc1` [CHLORAMBUCIL]: the IC50 entry is “Not Active” and the Ki entry was “Not Active”.

With `Cc1ccc(N(CC2=NCCN2)c2cccc(O)c2)cc1` [PHENTOLAMINE], the IC50 result is “Not Active” and the Ki entry is “Not Active”.

On to `COc1ccc(C[C@H]2NC[C@H](O)[C@H]2OC(C)=O)cc1` [ANISOMYCIN], for which the IC50 result is on record as “Not Active” and the Ki result is reported as “Not Active”.

As to `CN(C)CCCN1c2ccccc2Sc2ccc(Cl)cc21` [CHLORPROMAZINE], the IC50 entry is recorded as “Not Active” and the Ki result is listed as “Not Active”.

Consider `CCOC(=O)C1=C(COCCN)NC(C)=C(C(=O)OC)C1c1ccccc1Cl` (stereo unspecified) [AMLODIPINE], for which the IC50 entry is given as “Not Active” and the Ki result is recorded as “Not Active”.

For the compound LEAD (II) ACETATE, the IC50 result is recorded as “Not Active” and the Ki entry is reported as “Not Active”.

For the compound CADMIUM ACETATE, the IC50 result is reported as “Not Active” and the Ki result is “Not Active”.

Another series concerns the target T2, Alpha-2C adrenergic receptor (Homo sapiens, UniProt P18825).
T2 sequence (P18825 whole entry): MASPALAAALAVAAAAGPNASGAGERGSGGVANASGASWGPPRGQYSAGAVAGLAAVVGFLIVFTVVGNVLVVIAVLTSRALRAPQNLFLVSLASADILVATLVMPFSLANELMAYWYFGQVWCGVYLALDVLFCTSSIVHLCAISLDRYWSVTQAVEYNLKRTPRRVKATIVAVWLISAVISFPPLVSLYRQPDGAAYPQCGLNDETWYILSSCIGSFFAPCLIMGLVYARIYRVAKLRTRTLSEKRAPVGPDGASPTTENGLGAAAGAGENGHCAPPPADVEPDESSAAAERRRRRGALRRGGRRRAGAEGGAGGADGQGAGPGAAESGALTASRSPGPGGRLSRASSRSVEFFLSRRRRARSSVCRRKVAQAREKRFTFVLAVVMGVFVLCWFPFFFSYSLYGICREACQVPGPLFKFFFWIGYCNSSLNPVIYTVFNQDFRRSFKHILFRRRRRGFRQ
Kind of series: DRUGMATRIX: Adrenergic Alpha-2C radioligand binding (ligand: [3H] MK-912). Conditions: sf9. It counts as cell membranes, Sf9, Membrane.
In the case of `CC(C)(C)NCC(O)c1cc(Cl)c(N)c(Cl)c1` (stereo unspecified) [CLENBUTEROL], the IC50 result is listed as “Not Active”.

Take `O=C(O)CCCc1ccc(N(CCCl)CCCl)cc1` [CHLORAMBUCIL]: the IC50 result is “Not Active”.

As to `COc1ccc(C[C@H]2NC[C@H](O)[C@H]2OC(C)=O)cc1` [ANISOMYCIN], the IC50 result is on record as “Not Active” and the Ki entry was “Not Active”.

On to LEAD (II) ACETATE, for which the IC50 entry was “Not Active” and the Ki entry is “Not Active”.

Consider CADMIUM ACETATE, for which the IC50 result was “Not Active” and the Ki result was “Not Active”.

Another series addresses Glycine receptor (Rattus norvegicus, UniProt P22771+P24524+P07727+P20781). In kind it is cell membranes, Wistar, Spinal cord, Membrane.
Details: not given
`CC(C)(C)NCC(O)c1cc(Cl)c(N)c(Cl)c1` (stereo unspecified) [CLENBUTEROL]: the IC50 entry is “Not Active”.

As to `O=C(O)CCCc1ccc(N(CCCl)CCCl)cc1` [CHLORAMBUCIL], the IC50 entry is “Not Active”.

In the case of `Cc1ccc(N(CC2=NCCN2)c2cccc(O)c2)cc1` [PHENTOLAMINE], the IC50 result was “Not Active”.

As for `COc1ccc(C[C@H]2NC[C@H](O)[C@H]2OC(C)=O)cc1` [ANISOMYCIN], the IC50 result is “Not Active” and the Ki result is “Not Active”.

In the case of `CN(C)CCCN1c2ccccc2Sc2ccc(Cl)cc21` [CHLORPROMAZINE], the IC50 result was “Not Active”.

`CCOC(=O)C1=C(COCCN)NC(C)=C(C(=O)OC)C1c1ccccc1Cl` (stereo unspecified) [AMLODIPINE]: the IC50 entry was “Not Active”.

As to LEAD (II) ACETATE, the IC50 result is recorded as “Not Active” and the Ki entry is recorded as “Not Active”.

As to CADMIUM ACETATE, the IC50 result was “Not Active” and the Ki entry is listed as “Not Active”.

Test system in a further series: not listed separately
Briefly: DRUGMATRIX: GABAA, Chloride Channel, TBOB radioligand binding (ligand: [3H] TBOB). In kind it is cell membranes, Rattus norvegicus, Wistar, Cerebral cortex, Membrane. Conditions: Not Active = under 50% inhibition at 10 µM.
Regarding `CC(C)(C)NCC(O)c1cc(Cl)c(N)c(Cl)c1` (stereo unspecified) [CLENBUTEROL], the IC50 result is listed as “Not Active” and the Ki result was “Not Active”.

Regarding `O=C(O)CCCc1ccc(N(CCCl)CCCl)cc1` [CHLORAMBUCIL], the IC50 entry is “Not Active” and the Ki entry is given as “Not Active”.

With `Cc1ccc(N(CC2=NCCN2)c2cccc(O)c2)cc1` [PHENTOLAMINE], the IC50 entry is “Not Active” and the Ki entry is “Not Active”.

Take `COc1ccc(C[C@H]2NC[C@H](O)[C@H]2OC(C)=O)cc1` [ANISOMYCIN]: the IC50 entry is “Not Active” and the Ki entry is given as “Not Active”.

In the case of `CN(C)CCCN1c2ccccc2Sc2ccc(Cl)cc21` [CHLORPROMAZINE], the IC50 result is listed as “Not Active” and the Ki entry was “Not Active”.

For the compound `CCOC(=O)C1=C(COCCN)NC(C)=C(C(=O)OC)C1c1ccccc1Cl` (stereo unspecified) [AMLODIPINE], the IC50 result is on record as “Not Active” and the Ki result is given as “Not Active”.

Regarding LEAD (II) ACETATE, the IC50 result is “Not Active” and the Ki result was “Not Active”.

As for CADMIUM ACETATE, the IC50 entry is given as “Not Active” and the Ki result is “Not Active”.
